According to ChEMBL document CHEMBL4017496 (J Med Chem, 2017):
Calls of active or inactive are those of the source. The rule behind the calls is not given here.

Legend:
[1] = target: T1, Oxysterols receptor LXR-beta (Homo sapiens) (UniProt P55055); test: Binding affinity to human LXRbeta at 4 uM by TR-FRET assay
T1 sequence (whole entry): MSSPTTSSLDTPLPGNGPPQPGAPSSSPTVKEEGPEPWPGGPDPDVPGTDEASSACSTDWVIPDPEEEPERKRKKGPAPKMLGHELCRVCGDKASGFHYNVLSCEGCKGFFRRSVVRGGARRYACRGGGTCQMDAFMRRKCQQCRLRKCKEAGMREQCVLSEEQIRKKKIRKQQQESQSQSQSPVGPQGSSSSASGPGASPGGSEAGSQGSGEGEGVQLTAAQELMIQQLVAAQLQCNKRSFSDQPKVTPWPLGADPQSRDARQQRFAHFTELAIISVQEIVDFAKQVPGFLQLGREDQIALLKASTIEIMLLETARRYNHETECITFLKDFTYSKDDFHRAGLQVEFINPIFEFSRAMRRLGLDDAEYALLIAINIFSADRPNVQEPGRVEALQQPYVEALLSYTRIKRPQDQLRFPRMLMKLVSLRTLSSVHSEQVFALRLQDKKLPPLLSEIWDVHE

[2] = target: T2, Glucocorticoid receptor (Homo sapiens) (UniProt P04150); test: Displacement of Fluormone-GS1 from human GST-tagged glucocorticoid receptor LBD at 4 uM by TR-FRET assay
T2 sequence (whole entry): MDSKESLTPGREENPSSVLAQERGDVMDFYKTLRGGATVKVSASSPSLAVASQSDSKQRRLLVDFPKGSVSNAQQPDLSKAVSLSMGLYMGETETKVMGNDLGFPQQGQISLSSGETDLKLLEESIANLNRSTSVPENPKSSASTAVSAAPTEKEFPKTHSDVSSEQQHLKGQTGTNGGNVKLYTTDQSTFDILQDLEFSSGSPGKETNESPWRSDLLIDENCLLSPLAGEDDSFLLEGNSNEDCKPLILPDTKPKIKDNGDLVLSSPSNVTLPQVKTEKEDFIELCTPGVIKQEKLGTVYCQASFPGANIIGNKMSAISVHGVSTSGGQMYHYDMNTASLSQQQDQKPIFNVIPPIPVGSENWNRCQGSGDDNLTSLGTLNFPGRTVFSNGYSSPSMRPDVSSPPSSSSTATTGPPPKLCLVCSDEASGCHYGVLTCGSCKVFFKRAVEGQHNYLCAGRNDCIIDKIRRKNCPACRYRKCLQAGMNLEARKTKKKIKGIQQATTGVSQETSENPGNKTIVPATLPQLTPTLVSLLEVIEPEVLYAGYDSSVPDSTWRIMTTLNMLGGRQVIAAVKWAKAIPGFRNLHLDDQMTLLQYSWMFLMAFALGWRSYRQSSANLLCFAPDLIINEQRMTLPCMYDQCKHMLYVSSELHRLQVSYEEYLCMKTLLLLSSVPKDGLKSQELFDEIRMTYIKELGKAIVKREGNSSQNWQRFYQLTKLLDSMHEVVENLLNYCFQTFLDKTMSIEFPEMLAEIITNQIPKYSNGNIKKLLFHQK

[3] = target: T3, Oxysterols receptor LXR-alpha (Homo sapiens) (UniProt Q13133); test: Binding affinity to human LXRalpha at 4 uM by TR-FRET assay
T3 sequence (whole entry): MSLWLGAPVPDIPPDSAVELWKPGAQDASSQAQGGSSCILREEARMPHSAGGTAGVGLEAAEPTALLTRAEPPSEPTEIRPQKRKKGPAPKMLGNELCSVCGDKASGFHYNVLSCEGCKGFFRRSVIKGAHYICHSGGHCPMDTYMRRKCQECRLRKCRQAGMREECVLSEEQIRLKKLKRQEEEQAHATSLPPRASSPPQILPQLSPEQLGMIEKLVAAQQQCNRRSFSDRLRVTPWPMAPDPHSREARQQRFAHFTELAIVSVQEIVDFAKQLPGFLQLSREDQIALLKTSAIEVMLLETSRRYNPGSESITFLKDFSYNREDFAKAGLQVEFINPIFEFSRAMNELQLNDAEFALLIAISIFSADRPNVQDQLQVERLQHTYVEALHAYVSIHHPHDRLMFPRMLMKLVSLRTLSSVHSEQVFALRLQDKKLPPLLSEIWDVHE

[4] = Induction of adipogenesis in human bone marrow-derived mesenchymal stem cells assessed as adiponectin level at 4 uM measured on day 7 after 48 hrs by ELISA; format: functional, Mesenchymal stem cell
[5] = target: T4, Peroxisome proliferator-activated receptor delta (Homo sapiens, UniProt Q03181); test: Displacement of Fluormone-Pan-PPAR Green from human GST-tagged PPARdelta LBD by TR-FRET assay
T4 sequence (Q03181 whole entry): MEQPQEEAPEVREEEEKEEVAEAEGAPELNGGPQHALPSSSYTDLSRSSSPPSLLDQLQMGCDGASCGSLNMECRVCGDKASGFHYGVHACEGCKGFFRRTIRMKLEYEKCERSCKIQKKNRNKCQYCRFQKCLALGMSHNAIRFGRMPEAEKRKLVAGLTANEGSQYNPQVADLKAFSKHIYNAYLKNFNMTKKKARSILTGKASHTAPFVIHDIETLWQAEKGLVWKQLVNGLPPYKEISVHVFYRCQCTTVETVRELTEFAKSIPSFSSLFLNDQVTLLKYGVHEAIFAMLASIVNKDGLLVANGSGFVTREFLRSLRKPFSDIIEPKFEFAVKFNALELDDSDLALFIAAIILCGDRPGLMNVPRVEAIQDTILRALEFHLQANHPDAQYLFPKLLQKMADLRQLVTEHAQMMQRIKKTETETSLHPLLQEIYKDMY

[6] = target: T5, Peroxisome proliferator-activated receptor delta (Homo sapiens) (UniProt Q03181); test: Displacement of Fluormone-Pan-PPAR Green from human GST-tagged PPARdelta LBD at 4 uM by TR-FRET assay relative to control
T5 sequence (whole entry): T4 sequence (Q03181 whole entry)

[7] = Induction of adipogenesis in human bone marrow-derived mesenchymal stem cells assessed as adiponectin level at 20 uM measured on day 7 after 48 hrs by ELISA; format: functional, Mesenchymal stem cell
[8] = target: T6, Peroxisome proliferator-activated receptor alpha (Homo sapiens) (UniProt Q07869); test: Displacement of Fluormone-Pan-PPAR Green from human GST-tagged PPARalpha LBD at 20 uM by TR-FRET assay relative to control
T6 sequence (whole entry): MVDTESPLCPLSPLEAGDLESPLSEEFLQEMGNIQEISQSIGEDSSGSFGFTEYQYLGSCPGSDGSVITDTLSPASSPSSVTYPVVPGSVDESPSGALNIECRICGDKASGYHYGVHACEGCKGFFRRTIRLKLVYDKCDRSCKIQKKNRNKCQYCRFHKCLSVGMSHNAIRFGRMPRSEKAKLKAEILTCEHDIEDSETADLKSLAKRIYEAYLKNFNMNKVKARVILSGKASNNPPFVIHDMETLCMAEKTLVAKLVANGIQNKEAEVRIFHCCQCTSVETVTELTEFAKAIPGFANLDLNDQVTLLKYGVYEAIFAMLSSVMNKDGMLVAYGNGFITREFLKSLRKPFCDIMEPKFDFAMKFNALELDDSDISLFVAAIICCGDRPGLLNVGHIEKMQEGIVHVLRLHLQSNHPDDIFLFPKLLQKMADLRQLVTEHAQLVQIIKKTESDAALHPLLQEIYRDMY

[9] = target: T6, Peroxisome proliferator-activated receptor alpha (Homo sapiens); test: Displacement of Fluormone-Pan-PPAR Green from human GST-tagged PPARalpha LBD at 4 uM by TR-FRET assay relative to control
[10] = target: T7, Peroxisome proliferator-activated receptor gamma (Homo sapiens) (UniProt P37231); test: (§1) Displacement of Fluormone-Pan-PPAR Green from human GST-tagged PPARgamma LBD by TR-FRET assay
T7 sequence (whole entry): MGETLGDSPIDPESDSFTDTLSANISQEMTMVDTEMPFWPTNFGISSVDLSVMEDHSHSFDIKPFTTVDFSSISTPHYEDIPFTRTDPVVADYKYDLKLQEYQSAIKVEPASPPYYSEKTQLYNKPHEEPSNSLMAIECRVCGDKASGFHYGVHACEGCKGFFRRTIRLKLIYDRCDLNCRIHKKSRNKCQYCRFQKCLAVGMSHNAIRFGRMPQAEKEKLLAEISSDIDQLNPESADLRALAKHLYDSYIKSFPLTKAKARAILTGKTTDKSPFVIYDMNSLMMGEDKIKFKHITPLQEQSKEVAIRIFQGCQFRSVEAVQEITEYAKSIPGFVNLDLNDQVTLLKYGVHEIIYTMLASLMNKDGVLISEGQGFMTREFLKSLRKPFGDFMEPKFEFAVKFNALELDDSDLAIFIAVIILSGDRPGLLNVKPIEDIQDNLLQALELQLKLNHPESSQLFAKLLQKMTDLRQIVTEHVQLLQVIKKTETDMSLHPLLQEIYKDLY

[11] = target: T8, Peroxisome proliferator-activated receptor gamma (Homo sapiens, UniProt P37231); test: as §1
T8 sequence (P37231 whole entry): T7 sequence (whole entry)

[12] = target: T7, Peroxisome proliferator-activated receptor gamma (Homo sapiens); test: Displacement of Fluormone-Pan-PPAR Green from human GST-tagged PPARgamma LBD at 4 uM by TR-FRET assay relative to control
[13] = system: Mesenchymal stem cell; test: Inhibition of adipogenesis in human bone marrow-derived mesenchymal stem cells assessed as decrease in number and size of lipid droplets at 1 mM after 7 days in presence of IDX by oil red O staining based inverted microscopic method; format: functional
[14] = system: Mesenchymal stem cell; test: Inhibition of adipogenesis in human bone marrow-derived mesenchymal stem cells at 1 mM after 7 days in presence of IDX; format: functional, cell-based

Activity [1] | inhibition [2] | Activity [3] | Ki [5] [nM] | inhibition [6] [%] | inhibition [8] [%] | inhibition [9] | inhibition [10] | Ki [11] [nM] | inhibition [12] [%] | SMILES | Activity [4] [pg/mL] | Activity [7] [pg/mL] | inhibition [13] | inhibition [14]
inactive | inactive | inactive | 430 | 75 | 46.5 | inactive | Dose-dependent effect | 2180 | 59 | CNC(=O)[C@H]1O[C@@H](n2cnc3c(NCc4cccc(I)c4)nc(Cl)nc32)[C@H](O)[C@@H]1O [NAMODENOSON] | 221 | 603 |  | 
 |  |  |  |  |  |  |  |  |  | Cn1c(=O)c2c(ncn2C)n(C)c1=O |  |  | Active | Active
